The results in this text go back to patent publication US20240400572A1, “COMPOUNDS AND METHODS FOR TREATING CANCERS THAT ARE MGMT DEFICIENT REGARDLESS OF MMR STATUS” (Yale University, priority 2021, published 2024).

This assay has as its system LN229 MGMT+/−, MMR+/− cells. Put plainly: Clonogenic cell survival assay. Particulars: cell status given in the value.

Entries after “also recorded” stand apart in the source; their conditions may differ.

Description: Cells were trypsinized, washed, counted, and diluted in a medium containing various concentrations of drug. They were then immediately seeded in six-well plates in triplicate at three-fold dilutions, ranging from 9000 to 37 cells per well. Depending on colony size, these plates were kept in the incubator for 10 to 14 days. After incubation, colonies were washed in phosphate-buffered saline (PBS), stained with crystal violet, counted, and quantified.

Take `Cn1nnc2c(C(N)=O)ncn2c1=O` [TMZ, temozolomide, reference compound]: the “clonogenic survival (in words)” value is “negligible activity in MGMT+LN229 cells, irrespective of MMR status; also recorded: robust tumor cell killing in MGMT−, MMR+ cells that was abolished in isogenic cells lacking MMR”.
